The nature of data set [1]: Inhibition of nitration of compound 1A in the presence of nitrite by antioxidant inhibitor agents. The data set is classed as physicochemical. Conditions: for Nitration (%) of 1A with inhibiting agent: 1A 50 μM, NaNO2 100 μM; for inhibition of the nitrite-mediated nitration of 1A: pH and nitrite concentration that give almost total conversion to the nitro reaction product. How it is done:
(§1) It is known that L-tyrosine can be converted to a nitro reaction product in which the NO2 group is substituted ortho to the ring hydroxyl group. The experimental procedure for determining the extent of nitration of L-tyrosine was used for determining the nitration of compound 1A and the inhibition thereof by selected antioxidants. The experimental procedure for L-tyrosine is known (1998, Chem. Res. Toxicol., 11, 1578). In brief, solutions of compound 1A (50 μM) were exposed to solutions of NaNO3 (2500 μM) and/or NaNO2 (various concentrations) at various pH values, at 37° C. and in the presence or absence of phosphate buffer. The nitration reaction leads to the formation of the 5′-nitro reaction product of compound 1A. This reaction product can be detected and quantified using HPLC, the reaction product having a reduced retention time (under the conditions used) compared to the parent compound. Antioxidant inhibitors were then added to NaNO2— and 1A-containing test solutions and the nitration tests repeated.
On addition of selected antioxidant inhibiting agents to compound 1A in the presence of nitrite, the results of Table 2 were achieved. The amount of antioxidant used was generally around 10-20 times the amount of compound 1A.

Data set [2] can be described thus: Nitration of compound 1A in the presence of nitrite and/or nitrate at various pH (HPLC-MS/MS). The data set is classed as physicochemical. Conditions: 1A 50 μM. How it is done:
as §1
Analysis was by HPLC-MS/MS, with the following conditions: […]

The nature of data set [3]: In vivo nitration study in rats. Conditions: given with nitrate and nitrite solution (54 mg and 4 mg per rat).
The nature of data set [4]: Clinical testing: nitrated reaction product after compound 1A as solution or enteric coated tablets. The note with it: solution, single dose, clinically relevant dosages. In kind it is in vivo, human. The text has this:
Clinically relevant dosages of compound 1A were given to human subjects in the form of a solution in a single dose.

Regarding Catechin, the “Nitration (%) of 1A with inhibiting agent” value in data set [1] (pH 2 (HCl), 4 hr) is on record as 0.01%; in data set [1] (pH 2 (HCl), 24 hr), 0.02%; in data set [1] (pH 2 (phosphate), 4 hr) it was 0.01%; in data set [1] (pH 2 (phosphate), 24 hr), 0%; in data set [1] (pH 6.4 (NaAc), 4 hr), 0%; in data set [1] (pH 6.4 (NaAc), 24 hr), 0%. Further, the “Nitration (%) of 1A with inhibiting agent” value turned out to be 0% in data set [1] (pH 6.4 (phosphate), 4 hr) and 0% in data set [1] (pH 6.4 (phosphate), 24 hr).
For `Cc1cc(C(C)(C)C)c(O)c(C(C)(C)C)c1` [BHT, butylated hydroxytoluene], in data set [1] (pH 2 (HCl), 24 hr), the “Nitration (%) of 1A with inhibiting agent” value is given as 0.02%. In data set [1], the “inhibition of the nitrite-mediated nitration of 1A” value is recorded as “essentially complete inhibition”.
For `CC(C)c1cc(Oc2c(Br)cc(NC(=O)CC(=O)O)cc2Br)ccc1O` [compound 1A, 3-[[3,5-Dibromo-4-[4-hydroxy-3-(1-methylethyl)-phenoxy]-phenyl]-amino]-3-oxopropanoic acid], the “Nitration (%)” value in data set [2] (NaNO2 100 μM, no NaNO3, pH 2 (HCl), 4 hr) worked out at 98.6%; in data set [2] (NaNO2 100 μM, no NaNO3, pH 2 (phosphate), 4 hr), 4.27%; in data set [2] (NaNO2 100 μM, no NaNO3, pH 6.4, 4 hr) it was 0.013%; in data set [2] (NaNO2 100 μM, no NaNO3, pH 7.2, 4 hr), 0%; in data set [2] (NaNO2 100 μM, no inhibiting agent, pH 6.4, 24 hr), 0.02%; in data set [2] (NaNO2 400 μM, no inhibiting agent, pH 6.4, 24 hr) it was 0.12%. Besides, the “Nitration (%)” value in data set [2] (NaNO2 800 μM, no inhibiting agent, pH 6.4, 24 hr) was 0.21%; in data set [2] (NaNO3 2500 μM, NaNO2 100 μM, pH 2 (HCl), 4 hr) it was 8.4%; in data set [2] (NaNO3 2500 μM, NaNO2 100 μM, pH 2 (phosphate), 4 hr) it was 9.63%; in data set [2] (NaNO3 2500 μM, NaNO2 100 μM, pH 6.4, 4 hr), 0.017%; in data set [2] (NaNO3 2500 μM, NaNO2 100 μM, pH 7.2, 4 hr), 0%; in data set [2] (NaNO3 2500 μM, no NaNO2, pH 2 (HCl), 4 hr) it was 0%. The “Nitration (%)” value in data set [2] (NaNO3 2500 μM, no NaNO2, pH 2 (phosphate), 4 hr) is reported as 0%; in data set [2] (NaNO3 2500 μM, no NaNO2, pH 6.4, 4 hr), 0%; in data set [2] (NaNO3 2500 μM, no NaNO2, pH 7.2, 4 hr), 0%; in data set [2] (no NaNO3, no NaNO2, pH 2 (HCl), 24 hr), 0%; in data set [2] (no NaNO3, no NaNO2, pH 2 (phosphate), 24 hr), 0%; in data set [2] (no NaNO3, no NaNO2, pH 6.4, 24 hr), 0%. Further, in data set [2] (no NaNO3, no NaNO2, pH 7.2, 24 hr), the “Nitration (%)” value worked out at 0%. Further, in data set [3], the administered dose nitrated entry is “around 6%”. The “nitrated reaction product in human subjects” value in data set [4] was “detected in a significant number of the subjects”.
Consider `O=S([O-])O.[Na+]` [Sodium bisulfite], for which the “Nitration (%) of 1A with inhibiting agent” value stood at 0.77% in data set [1] (pH 2 (HCl), 0 hr); 0.11% in data set [1] (pH 2 (HCl), 2 hr); 0.11% in data set [1] (pH 2 (phosphate), 0 hr); 0.16% in data set [1] (pH 2 (phosphate), 2 hr); 0.17% in data set [1] (pH 2 (phosphate), 4 hr); 0% in data set [1] (pH 6.4 (NaAc), 2 hr). The “Nitration (%) of 1A with inhibiting agent” value in data set [1] (pH 6.4 (NaAc), 4 hr) came to 0%; in data set [1] (pH 6.4 (phosphate), 2 hr), 0%; in data set [1] (pH 6.4 (phosphate), 4 hr), 0%.
For the molecule `O=C1O[C@H]([C@@H](O)CO)C([O-])=C1O.[Na+]` [Sodium ascorbate], the “Nitration (%) of 1A with inhibiting agent” value worked out at 0.00% in data set [1] (pH 2 (HCl), 4 hr); 0.00% in data set [1] (pH 2 (phosphate), 4 hr); 0.00% in data set [1] (pH 6.4, 4 hr); 0.00% in data set [1] (pH 7.2, 4 hr). In addition, in data set [1], the “inhibition of the nitrite-mediated nitration of 1A” value was “essentially complete inhibition”.

(Values after patent US20090220598A1, “Stable Oral Pharmaceutical Composition Containing Thyroid Hormone Receptor Agonists” (priority 2006, published 2009).)
